# System: prostaglandins in guinea pig secondary aqueous humor
# Assay: Effect on prostaglandin composition in guinea pig aqueous humor (instillation of 0.003% ophthalmic solution, LC/MS/MS)
# Type: in vivo, Hartley male guinea pig
# Settings: 24 hr after instillation of 0.003% ophthalmic solution
# Method: A test article was dissolved in saline containing 0.5% polysorbate80 (Fluka) and 0.003% ophthalmic solution (pH 7.0-8.0) was prepared. The test article was administered to Hartley male guinea pig by instillation of 20 μL thereof to one eye by using a micropipette. After instillation, the lacrimal part was lightly fixed by gently pressing the lower eyelid for about 15 seconds. The opposite eye was treated in the same manner. To the vehicle group was administered the medium (0.5% polysorbate-containing saline) by a method similar to that for the test article. After 23 hr from the instillation, Mydrin P (registered trade mark) 0.5% ophthalmic solution (Santen Pharmaceutical Co., Ltd., general name: tropicamide/phenylephrine hydrochloride) was dropwisely added by one drop to the both eyes of a guinea pig to cause mydriasis. The guinea pig was anesthetized with Escain (registered trade mark) inhalation anesthetics (Pfizer Inc., general name: isoflurane), the cornea of the both eyes was tapped with a 30G injection needle, and the leaked aqueous humor (primary aqueous humor) was collected. One hour later (24 hr after instillation), the guinea pig was anesthetized again with isoflurane, and the secondary aqueous humor was collected in the same manner. The concentration of prostaglandins in the secondary aqueous humor obtained from each group (4 guinea pigs, 8 eyes) was measured by the LC/MS/MS system (Ultra high performance liquid chromatography: Nexera (registered trademark) manufactured by Shimadzu Corporation, mass spectrometer: […]), and the concentration ratio of each prostaglandin concentration relative to the total of all prostaglandin concentrations was calculated.
SMILES,6-keto-PGF1α (%),PGD2 (%),PGE2 (%),PGF2α (%),TXB2 (%)
"CC(C)Cc1ccc(-c2nc(O)nc(-c3cc(CNC(=O)C(C)(C)C)ccc3Cl)n2)cc1 [Example 1-51, N-{4-chloro-3-[4-(4-isobutylphenyl)-6-hydroxy-1,3,5-triazin-2-yl]benzyl}-2,2-dimethylpropionamide]",21.7,13.2,50.7,14,0.4
"Cc1ccc(-c2nc(O)nc(-c3cc(CNC(=O)C(C)(C)C(F)(F)F)ccc3Cl)n2)cc1F [Example 1-81, N-{4-chloro-3-[4-(3-fluoro-4-methylphenyl)-6-hydroxy-1,3,5-triazin-2-yl]benzyl}-3,3,3-trifluoro-2,2-dimethylpropionamide]",15.7,13.2,60,9.8,1.3

# Target: T1, human mPGES-1 (Homo sapiens, UniProt O14684)
# T1 construct: made in house; host or cells: FreeStyle CHO-S cells (Chinese hamster ovary), transient transfection with pcDNA3.1(+)/human mPGES-1; microsome fraction used
# T1 sequence (O14684 1-152): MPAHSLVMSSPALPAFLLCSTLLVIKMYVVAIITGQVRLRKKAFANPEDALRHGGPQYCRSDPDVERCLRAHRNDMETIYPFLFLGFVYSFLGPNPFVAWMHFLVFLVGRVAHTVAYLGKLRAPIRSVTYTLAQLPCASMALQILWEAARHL
# Assay: Evaluation of human mPGES-1 enzyme inhibitory activity (PGE2 measured by HTRF, microsome fraction of CHO-S cells expressing human mPGES-1)
# Type: biochemical
# Settings: IC50 value; microsome fraction of CHO-S cells expressing human mPGES-1, PGE2 by HTRF
# In short: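 Enzyme source: microsomes from CHO-S cells transfected with human mPGES-1 and cultured 48 hr, diluted to 5 μg/mL protein in reduced GSH (12.5 mmol/L KPB solution). Test articles were in 0.1 mol/L potassium phosphate pH 7.4, final DMSO 2% (v/v). PGE2 formed was quantified by HTRF.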
row,SMILES,IC50 [nM]
1,"CC(C)Cc1ccc(-c2nc(O)nc(-c3cc(CNC(=O)C(C)(C)C)ccc3Cl)n2)cc1 [Example 1-51, N-{4-chloro-3-[4-(4-isobutylphenyl)-6-hydroxy-1,3,5-triazin-2-yl]benzyl}-2,2-dimethylpropionamide]",1
2,"Cc1ccc(-c2nc(O)nc(-c3cc(CNC(=O)C(C)(C)C(F)(F)F)ccc3Cl)n2)cc1F [Example 1-81, N-{4-chloro-3-[4-(3-fluoro-4-methylphenyl)-6-hydroxy-1,3,5-triazin-2-yl]benzyl}-3,3,3-trifluoro-2,2-dimethylpropionamide]",0.6
3,Oc1nc(-c2ccc(C#Cc3cccc(C(F)(F)F)c3)cc2)nc(-c2c(OCc3ccccn3)cccc2C(F)(F)F)n1 [Example 2-104],18
4,Oc1nc(-c2ccc(C#Cc3ccc(C(F)(F)F)cc3)cc2)nc(-c2c(OCc3ccccn3)cccc2C(F)(F)F)n1 [Example 2-105],18
5,Oc1nc(-c2ccc(C#Cc3ccccc3)c(F)c2)nc(-c2c(OCc3ccccn3)cccc2C(F)(F)F)n1 [Example 2-106],5
6,Cc1cccc(COc2cccc(C(F)(F)F)c2-c2nc(O)nc(-c3ccc(C#Cc4ccccc4F)cc3)n2)n1 [Example 2-107],3.8
7,Cc1cccc(COc2cccc(C(F)(F)F)c2-c2nc(O)nc(-c3ccc(C#Cc4ccccc4Cl)cc3)n2)n1 [Example 2-108],6.4
8,COc1ccccc1C#Cc1ccc(-c2nc(O)nc(-c3c(OCc4cccc(C)n4)cccc3C(F)(F)F)n2)cc1 [Example 2-109],2.8
9,Cc1cc(C)nc(COc2cccc(C(F)(F)F)c2-c2nc(O)nc(-c3ccc(C#Cc4ccccc4)cc3)n2)c1 [Example 2-110],7.4
10,Oc1nc(-c2ccc(C#Cc3ccccc3)cc2)nc(-c2c(OCc3ncccc3F)cccc2C(F)(F)F)n1 [Example 2-111],4.4
11,Oc1nc(-c2ccc(C#Cc3ccccc3)cc2)nc(-c2c(OCc3ccc(Cl)cn3)cccc2C(F)(F)F)n1 [Example 2-112],5.9
12,Cc1ccnc(COc2cccc(C(F)(F)F)c2-c2nc(O)nc(-c3ccc(C#Cc4ccccc4)cc3)n2)c1 [Example 2-113],5.1
13,Cc1ccc(COc2cccc(C(F)(F)F)c2-c2nc(O)nc(-c3ccc(C#Cc4ccccc4)cc3)n2)nc1 [Example 2-114],4.9
14,Oc1nc(-c2ccc(C#Cc3ccccc3)cc2)nc(-c2c(OCc3ccc(F)cn3)cccc2C(F)(F)F)n1 [Example 2-115],3
15,Cc1cccc(COc2cccc(C(F)(F)F)c2-c2nc(O)nc(-c3ccc(C#Cc4cccc(F)c4)cc3)n2)n1 [Example 2-116],5.5
16,Cc1cccc(COc2cccc(C(F)(F)F)c2-c2nc(O)nc(-c3ccc(C#Cc4ccc(F)cc4)cc3)n2)n1 [Example 2-117],4.7
17,COc1cccc(COc2cccc(C(F)(F)F)c2-c2nc(O)nc(-c3ccc(C#Cc4ccccc4)cc3)n2)n1 [Example 2-118],7.1
18,Oc1cccc(COc2cccc(C(F)(F)F)c2-c2nc(O)nc(-c3ccc(C#Cc4ccccc4)cc3)n2)n1 [Example 2-119],1.8
19,COc1ccnc(COc2cccc(C(F)(F)F)c2-c2nc(O)nc(-c3ccc(C#Cc4ccccc4)cc3)n2)c1 [Example 2-120],4.1
20,Oc1nc(-c2ccc(C#Cc3ccccc3)cc2)nc(-c2c(OCc3cccc(C(F)(F)F)n3)cccc2C(F)(F)F)n1 [Example 2-121],14
21,Oc1nc(-c2ccc(C#Cc3ccccc3)cc2)nc(-c2c(OCc3cc(C(F)(F)F)ccn3)cccc2C(F)(F)F)n1 [Example 2-122],15
22,Cc1cccc(COc2cccc(C(F)(F)F)c2-c2nc(O)nc(-c3ccc(C#Cc4cccc(Cl)c4)cc3)n2)n1 [Example 2-123],12
23,Cc1cccc(COc2cccc(C(F)(F)F)c2-c2nc(O)nc(-c3ccc(C#Cc4ccc(Cl)cc4)cc3)n2)n1 [Example 2-124],12
24,COc1cccc(C#Cc2ccc(-c3nc(O)nc(-c4c(OCc5cccc(C)n5)cccc4C(F)(F)F)n3)cc2)c1 [Example 2-125],4.3
25,COc1ccc(C#Cc2ccc(-c3nc(O)nc(-c4c(OCc5cccc(C)n5)cccc4C(F)(F)F)n3)cc2)cc1 [Example 2-126],4.6
26,Cc1ccc(C#Cc2ccc(-c3nc(O)nc(-c4c(OCc5cccc(C)n5)cccc4C(F)(F)F)n3)cc2)cc1 [Example 2-127],6.2

row,SMILES,IC50 [nM]
1,CCc1ccc(C#Cc2ccc(-c3nc(O)nc(-c4c(OCc5cccc(C)n5)cccc4C(F)(F)F)n3)cc2)cc1 [Example 2-128],13
2,Cc1cccc(COc2cccc(C(F)(F)F)c2-c2nc(O)nc(-c3ccc(C#Cc4ccccc4OC(F)(F)F)cc3)n2)n1 [Example 2-129],32
3,Cc1cccc(COc2cccc(C(F)(F)F)c2-c2nc(O)nc(-c3ccc(C#Cc4ccc(OC(F)(F)F)cc4)cc3)n2)n1 [Example 2-130],35
4,Cc1cc(C)c(-c2nc(O)nc(-c3ccc(C(F)(F)F)cc3)n2)c(C)c1 [Example 3-1],484
5,COc1c(CO)ccc(Cl)c1-c1nc(O)nc(-c2ccc(C(F)(F)F)cc2)n1 [Example 3-2],148
6,COc1c(C)ccc(Cl)c1-c1nc(O)nc(-c2ccc(C(F)(F)F)cc2)n1 [Example 3-3],141
7,CCOc1c(C)ccc(Cl)c1-c1nc(O)nc(-c2ccc(C(F)(F)F)cc2)n1 [Example 3-4],202
8,COc1c(CNC(C)=O)ccc(Cl)c1-c1nc(O)nc(-c2ccc(C(F)(F)F)cc2)n1 [Example 3-5],341
9,Cc1c(CO)ccc(Cl)c1-c1nc(O)nc(-c2ccc(C(F)(F)F)cc2)n1 [Example 3-6],56
10,CC(=O)NCc1ccc(Cl)c(-c2nc(O)nc(-c3ccc(C(F)(F)F)cc3)n2)c1C [Example 3-7],19
11,Cc1c(CNC(=O)C(C)(C)C)ccc(Cl)c1-c1nc(O)nc(-c2ccc(C(F)(F)F)cc2)n1 [Example 3-8],1
12,Cc1ccc(Cl)c(-c2nc(O)nc(-c3ccc(C(F)(F)F)cc3)n2)c1OCCO [Example 3-9],776
13,Cc1c(CNS(=O)(=O)C(C)(C)C)ccc(Cl)c1-c1nc(O)nc(-c2ccc(C(F)(F)F)cc2)n1 [Example 3-10],16
14,COc1ccc(F)c(Cl)c1-c1nc(O)nc(-c2ccc(C(F)(F)F)cc2)n1 [Example 3-11],93
15,COc1ccc(F)c(Cl)c1-c1nc(O)nc(-c2ccc(OCc3ccccc3)cc2)n1 [Example 3-12],28
16,Cc1ccc(Cl)c(-c2nc(O)nc(-c3ccc(C(F)(F)F)cc3)n2)c1OCc1ccccn1 [Example 3-13],34
17,Cc1c(CNC(=O)C(C)(C)C(F)(F)F)ccc(Cl)c1-c1nc(O)nc(-c2ccc(CC(C)C)cc2)n1 [Example 3-14],2
18,CCOC(=O)NCc1ccc(Cl)c(-c2nc(O)nc(-c3ccc(CC(C)C)cc3)n2)c1C [Example 3-15],5.1
19,CCCc1cccc(-c2nc(O)nc(-c3cc(CNC(=O)C(C)(C)C(F)(F)F)c(C)cc3Cl)n2)c1 [Example 3-16],2.1
20,Cc1cc(Cl)c(-c2nc(O)nc(-c3ccc(OCC4CC4)cc3)n2)cc1CNC(=O)C(C)(C)C(F)(F)F [Example 3-17],0.8
21,Cc1c(CNC(=O)C(C)(C)C(F)(F)F)ccc(Cl)c1-c1nc(O)nc(-c2ccc(OCC(C)C)cc2)n1 [Example 3-18],1.2
22,Cc1cc(Cl)c(-c2nc(O)nc(-c3ccc(OCC4CC4)cc3)n2)cc1C(=O)O [Example 3-19],24600
23,Cc1cc(Cl)c(-c2nc(O)nc(-c3ccc(OCC4CC4)cc3)n2)cc1C(N)=O [Example 3-20],1100
24,CNC(=O)c1cc(-c2nc(O)nc(-c3ccc(OCC4CC4)cc3)n2)c(Cl)cc1C [Example 3-21],611
25,Cc1cc(Cl)c(-c2nc(O)nc(-c3ccc(OCC4CC4)cc3)n2)cc1C(=O)N(C)C [Example 3-22],6900
26,CCCCNC(=O)c1cc(-c2nc(O)nc(-c3ccc(OCC4CC4)cc3)n2)c(Cl)cc1C [Example 3-23],41
